Assay: In vitro skin permeation study in Franz diffusion cells
Type: in vitro ADME, human
Settings: all formulations
Excerpt: The steady-state flux was estimated from the slope of the linear portion of the plot of cumulative mass in the acceptor phase over time.

CC(C(=O)O)c1cccc(C(=O)c2ccccc2)c1 (stereo not shown) [KET, ketoprofen]
lag time, KET: below 0
